Assay results as given in paper PMC6940745 (International Journal of Molecular Sciences, 2019).
Where a SMILES comes first, the peptide text is derived from it. [ ]: non-standard residue; d: D form. The star is where a group is joined. Gly(N(CH2)2(3-indolyl)) = O=C(O)CNCCc1c[nH]c2ccccc12; 2Nal = N[C@@H](Cc1ccc2ccccc2c1)C(=O)O; d2Nal = N[C@H](Cc1ccc2ccccc2c1)C(=O)O; Dab = NCC[C@H](N)C(=O)O; Bz = O=C(c1ccccc1)*; NPr2 = CCCN(CCC)*

Experiments:
[1] = target: T1, human recombinant MC1 receptor (Homo sapiens, UniProt Q01726); test: MC1R activation, cAMP HTRF assay in CHO-K1 cells; format: cell-based
T1 construct: host or cells: CHO-K1
Description: MCR-activation assays were performed by means of a cAMP HTRF (homogeneous time resolved fluorescence) assay for Gs-coupled receptors (cAMP Gs dynamic kit, Cisbio bioassays, 62AM4PEC). CHO-K1 cells expressing human recombinant MC1 receptor (EuroscreenFast, Gosselies, Belgium) (or MC2R, MC3R, MC4R, MC5R) were grown prior to the test in media without antibiotic. They were detached by gentle flushing with PBS-EDTA (5 mM EDTA), recovered by centrifugation, and resuspended in assay buffer (5 mM KCl, 1.25 mM MgSO4, 124 mM NaCl, 25 mM HEPES, 13.3 mM Glucose, 1.25 mM KH2PO4, 1.45 mM CaCl2, 0.5 g/L BSA, supplemented with 1 mM IBMX). Dose response curves were performed in parallel with the reference compounds. For agonist test (96-well), 12 µL of cells were mixed with 12 µL of the test compound diluted at increasing concentrations in assay buffer, and then incubated for 30 min at room temperature. After addition of the lysis buffer and 1 h incubation, fluorescence signal was measured, according to the manufacturer’s specifications, with the homogeneous time resolved fluorescence (HTRF) kit.

[2] = test system: B16 murine melanoma cells; test: Total melanin synthesis in mouse melanoma cells; format: cell-based; details: 72 h incubation
Description: B16 murine melanoma cells, which are highly responsive towards stimulation with alpha-melanocyte stimulating hormone (alpha-MSH), were grown in Dulbecco’s modified eagle medium (DMEM) with 1 g/L glucose supplemented with 3 g/L glucose, 2 mM L-glutamine, 50 U/mL Penicillin, 50 µg/mL Streptomycin, and 10% fetal calf serum. They were kept at 37 °C in a 5% CO2 atmosphere. Cells were grown for 24 h and then medium was replaced with medium containing the test or reference (NDP-alpha-MSH) compounds. After 72 h, total (intracellular and extracellular) melanin content was determined by absorbance spectroscopy at 405 nm. The results were quantified against a melanin standard curve.
Figure 1 Total melanin synthesis in mouse melanoma cells stimulated with MC1R-agonist peptides. MC1R-agonist peptides were incubated at various concentrations together with the near confluent mouse melanoma cell line B16F10. NDP-alpha-MSH at 100 nM was used as the reference and set to 100% melanin (red line). Error bars represent standard error of the mean of three experiments.

[3] = test system: human abdominal skin ex vivo; test: Stimulation of pigmentation in human abdominal skin ex vivo (Fontana-Masson melanin quantification); format: cell-based; details: 200 µM peptide, topical, six days
Description: Following declaration of Helsinki principles (DoH-Oct2013, World Medical Association, Ferney-Voltaire, France), human skin samples were obtained from elective plastic surgery after informed consent was obtained. For the two experiments shown in Figure 2, Figure 3 and Figure 4, we had one person with an individual topology angle (ITA°) of 18, and one person with an ITA° of 39 [69]. The skin samples were cut in pieces of 8 × 3 mm and cultured up to day 6. Skin samples were cultured in an air–liquid interface in a perforated ring of stainless steel in contact with culture medium (modified Williams’ E medium). The culture medium was renewed every three days (i.e., day 0–3). Compounds were added daily in DMSO at 4 µL volume. At day 6, the skin samples were fixed in formalin, embedded in paraplast, and cut at the microtome for histochemical staining and consequent image analysis. Six skin biopsies were used for each single treatment.
Two skin biopsies for each treatment were weighed and, in each case, reduced in the dermal portion, in order to have approximately the same weight for all of them. Samples were then washed and processed with methylthiazolyldiphenyl-tetrazolium bromide (MTT). The color intensity, that is directly proportional to skin vitality, was measured with a plate reader at a wavelength of 570 nm. For melanin quantification, skin sections were stained with a modified Fontana-Masson stain that dyes melanin argentaffin granules in black/dark grey. The amount of melanin present in each slide was evaluated by estimating grey intensity and distribution within the sections using ImageJ application (NIH-USA). Two slides of each skin sample were processed by image acquisition and related analysis (i.e., 12 images for each treatment).
Figure 2 Stimulation of pigmentation by MC1R-agonist peptides ex vivo. Melanin was quantified on skin sections using ImageJ software (NIH, USA). Human abdominal skin was topically treated with peptides at various concentrations for six days. * p < 0.05 vs vehicle by unpaired Student’s t-test. […]

other MCRs = test system: other MCRs; parameters: method as in PMID 12591094, PMID 12576087; details: MCRs besides MC1R; cited from earlier work

T1 sequence (Q01726 whole entry): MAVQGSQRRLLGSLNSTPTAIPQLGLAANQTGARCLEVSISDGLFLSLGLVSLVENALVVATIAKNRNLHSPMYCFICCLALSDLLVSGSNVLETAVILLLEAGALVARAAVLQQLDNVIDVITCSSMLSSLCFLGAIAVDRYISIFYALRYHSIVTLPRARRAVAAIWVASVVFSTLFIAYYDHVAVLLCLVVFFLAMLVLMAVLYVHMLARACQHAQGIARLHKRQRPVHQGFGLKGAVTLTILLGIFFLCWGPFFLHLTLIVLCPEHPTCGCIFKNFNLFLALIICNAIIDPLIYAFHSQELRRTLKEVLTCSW

Molecule | EC50 [1] [nM] | Concentration at which maximal melanin synthesis activity comparable to 100 nM NDP-alpha-MSH is reached [2] | Stimulation of pigmentation compared to vehicle-treated control tissue [3] | Potency among other MCRs (other MCRs) [nM]
N=C(N)NCCC[C@H](NC(=O)[C@@H](Cc1ccccc1)NC(=O)[C@H](Cc1c[nH]cn1)NC(=O)CNC(=O)c1ccccc1)C(=O)N[C@@H](Cc1c[nH]c2ccccc12)C(N)=O [Peptide 1] (Bz-GH[dF]RW-NH2) | 0.041 | around 12.3 nM | up to 21% | –
N=C(N)NCCC[C@H](NC(=O)[C@@H](Cc1ccccc1)NC(=O)[C@H](Cc1c[nH]cn1)NC(=O)CNC(=O)c1ccccc1)C(=O)N[C@@H](Cc1ccc2ccccc2c1)C(N)=O [Peptide 2] (Bz-GH[dF]R[2Nal]-NH2) | 0.11 | around 12.3 nM | – | –
N=C(N)NCCC[C@H](NC(=O)[C@@H](Cc1ccccc1)NC(=O)[C@H](Cc1c[nH]cn1)NC(=O)CNC(=O)c1ccccc1)C(=O)N[C@H](Cc1ccc2ccccc2c1)C(N)=O [Peptide 3] (Bz-GH[dF]R[d2Nal]-NH2) | 0.25 | around 12.3 nM | – | –
CCCN(CCC)C(=O)[C@H](Cc1c[nH]c2ccccc12)NC(=O)[C@H](CCCNC(=N)N)NC(=O)[C@@H](Cc1ccccc1)NC(=O)[C@H](Cc1c[nH]cn1)NC(=O)CNC(=O)c1ccccc1 [Peptide 5] (Bz-GH[dF]RW-NPr2) | 0.88 | – | – | –
N=C(N)NCCC[C@H](NC(=O)[C@@H](Cc1ccccc1)NC(=O)[C@H](Cc1c[nH]cn1)NC(=O)CNC(=O)c1ccccc1)C(=O)N[C@H](Cc1ccccc1)C(N)=O [Peptide 6] (Bz-GH[dF]R[dF]-NH2) | 1.79 | > 111 nM | – | –
N=C(N)NCCC[C@H](NC(=O)[C@@H](Cc1ccccc1)NC(=O)[C@H](Cc1c[nH]cn1)NC(=O)CNC(=O)c1ccccc1)C(=O)N(CCc1c[nH]c2ccccc12)CC(N)=O [Peptide 7] (Bz-GH[dF]R[Gly(N(CH2)2(3-indolyl))]-NH2) | – | > 111 nM | – | –
NCC[C@H](NC(=O)[C@@H](Cc1ccccc1)NC(=O)[C@H](Cc1c[nH]cn1)NC(=O)CNC(=O)c1ccccc1)C(=O)N[C@@H](Cc1c[nH]c2ccccc12)C(N)=O [Peptide 8] (Bz-GH[dF][Dab]W-NH2) | 7.51 | > 111 nM | – | –
Ac-Ser-Tyr-Ser-Met-Glu-His-Phe-Arg-Trp- Gly-Lys-Pro-Val-NH2 [alpha-MSH] | – | – | – | ≤ 5
